The series relates to porcine pancreatic lipase. As to the kind of experiment: Porcine pancreatic lipase-catalyzed hydrolysis (lipase titrimetric assay, automatic pH stat method). The series is classed as in vitro ADME. The following applies: pH 8.5. Here is the method: To measure the relative rate of enzyme-catalyzed hydrolysis for the esterified propoxylated glycerin, the composition was challenged by porcine pancreatic lipase. Test emulsions were prepared using the composition according to the procedures described by Naher, "Lipase Titrimetric Assay", in Methods in Enzymatic Analysis, Vol. 2, 2nd Eng. ed., p. 814 (1974), except that the composition was not neutralized prior to generation of the emulsion. A 20 mL sample of the composition was utilized. The emulsions were generated in a Waring blender equipped with a stainless steel jacketed container (300 mL capacity). The jacketed blender container was filled with an ice-in-water suspension to cool the emulsion during preparation. Hydrolysis of the composition at pH 8.50 and two enzyme levels (200 and 4000 units/assay) was monitored via the automatic pH stat method described by Naber using a Radiometic Copenhagen RTS822 recording titration system (equipped with a PHM84 pH meter and a REA 270 derivatization unit) and a 0.1N sodium hydroxide solution. The enzymatic reaction was maintained at 37° C. under a nitrogen atmosphere.
The results obtained for the esterified alkoxylated polyol obtained as described hereinabove and for olive oil and soybean oil controls are shown in Table I. The table also provides comparative data for a conventional esterified alkoxylated polyol made by reacting 8 equivalents of propylene oxide with one equivalent of glycerin under basic conditions and esterifying with soybean fatty acids; this conventional fat substitute has a low (<5%) proportion of primary ester linkages. […] This finding was surprising in view of U.S. Pat. Nos. 5,059,443 and 5,077,073, which indicate that the rate of lipase-catalyzed hydrolysis is substantially independent of the structure of the ester linkages in an esterified alkoxylated polyol fat substitute.

This note sets out measurements from patent publication US5399729A, “Esterified alkoxylated polyol fat substitutes having high primary ester content” (Arco Chemical Technology, L.P., priority 1993, dated 1995).

On to Soybean Oil, for which the “Hydrolysis Rate (#μeq/min for an equivalent amount of enzyme)” value was determined as 3.62 μeq/min; the “Hydrolyzability (relative to olive oil)” value came to 0.738; the “Normalized Hydrolyzability (hydrolyzability compared on an equal molar basis, taking into account the concentration of ester linkages)” value amounted to 0.723.
